Measured values from patent publication US10206907B2, “Compounds useful for the treatment of degenerative and inflammatory diseases” (GALAPAGOS NV, priority 2008, dated 2019).
Read-outs that look alike come from different tables or passages of the source.

Assays:
[1] = Microsomal stability, human liver microsomes; type: in vitro ADME; conditions: percentage of compound remaining after 60 minutes, 3 μM compound
How it was run: (§1)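 Compound was incubated with liver microsomes plus an NADP+/glucose-6-phosphate/G6PDH/MgCl2 regenerating system at 37°C for 1 h. Reactions were stopped 1:1 with MeOH or ACN and analysed by LCMS.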

[2] = Microsomal stability, rat liver microsomes; type: in vitro ADME; conditions: percentage of compound remaining after 60 minutes, 3 μM compound
How it was run: as §1

[3] = target: Recombinant human JAK3 catalytic domain (Homo sapiens (Human), UniProt P52333); experiment: JAK3 inhibition assay; type: biochemical; conditions: semi-quantitative score
[4] = tested on: JAK-STAT signalling in HeLa cells; experiment: JAK-STAT signalling assay (OSM-triggered pSTAT1(2)-luciferase reporter in HeLa cells); type: cell-based; conditions: Homo sapiens, read-out: STAT signalling EC50
How it was run: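 HeLa cells transiently transfected with pSTAT1(2)-luciferase reporter plus LacZ internal control, incubated overnight at 37 °C, 10% CO2, then OSM-stimulated with compound. Luciferase read by Steadylite luminescence and normalised to β-galactosidase (ONPG); percent inhibition from controls, EC50 from dose-response.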

[5] = tested on: MMP13 in SW1353 cells; experiment: OSM/IL-1β signaling assay (MMP13 levels in SW1353 cells); type: cell-based; conditions: Homo sapiens, read-out: MMP13 EC50;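 further: secreted MMP13 captured by antibody, activated with APMA and its activity read by fluorescence, inhibition scaled between vehicle-treated triggered wells (0%) and untriggered wells (100%)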
[6] = tested on: TNF-alpha release; experiment: Septic shock model (LPS-induced TNF release); type: in vivo, mouse; conditions: 30 mg/kg po, BALB/cJ mice, LPS ip; statistically significant
Experimental: Injection of lipopolysaccharide (LPS) induces a rapid release of soluble tumour necrosis factor (TNF-alpha) into the periphery. This model is used to analyse prospective blockers of TNF release in vivo.
Six BALB/cJ female mice (20 g) per group were treated at the intended dosing once, po. Thirty minutes later, LPS (15 μg/kg; E. Coli serotype 0111:B4) was injected ip. Ninety minutes later, mice were euthanized and blood was collected. Circulating TNF alpha levels were determined using commercially available ELISA kits. Dexamethasone (5 μg/kg) was used as a reference anti-inflammatory compound. Selected compounds are tested at one or multiple doses, e.g. 3 and/or 10 and/or 30 mg/kg, po.

[7] = Caco2 permeability (bi-directional); type: in vitro ADME, human; conditions: human, pH 7.4; for Papp A→B at 1 h, 10 µM: Caco-2, apical to basolateral, read-out: Papp (A2B); for efflux ratio at 1 h, 10 µM: Caco-2, ratio of PappB>A/PappA>B
How it was run: (§2)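 Bidirectional transport across Caco-2 monolayers was run for 1 h at 37 °C with shaking, with 50 μM Lucifer Yellow in the donor to check monolayer integrity (acceptance ≤100 nm/s). Apical and basal compound levels were measured by LC-MS/MS, and efflux ratio was taken as PappB>A/PappA>B.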

[8] = target: Recombinant human JAK1 catalytic domain (Homo sapiens (Human), UniProt P23458); experiment: JAK1 inhibition assay; type: biochemical; conditions: semi-quantitative score
How it was run: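 Radiometric assay read by scintillation counting after phosphoric-acid washes. Percent inhibition calculated from cpm relative to vehicle and 10 μM staurosporine control. IC50 derived from compound dose-dilution series.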

[9] = target: Recombinant human JAK2 catalytic domain (Homo sapiens (Human), UniProt O60674); experiment: JAK2 inhibition assay; type: biochemical; conditions: semi-quantitative score
How it was run: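 Radiometric kinase reactions ran for 90 min at 30 °C and were stopped with phosphoric acid, then washed and counted by scintillation. Percent inhibition was set relative to vehicle and to 10 μM staurosporine background. IC50 was derived from dose-dilution series.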

[10] = tested on: Collagen Induced Arthritis (CIA); experiment: Rat CIA model; type: in vivo; conditions: therapeutic dosing day 16 to day 30, p.o., statistical significance in several of the readouts
Experimental: Completed Freund's adjuvant (CFA) and incomplete Freund's adjuvant (IFA) were purchased from Difco. Bovine collagen type II (CII), lipopolysaccharide (LPS), and Enbrel were obtained from Chondrex (Isle d'Abeau, France); Sigma (P4252, L'Isle d'Abeau, France), Whyett (25 mg injectable syringe, France) Acros Organics (Palo Alto, Calif.), respectively. All other reagents used were of reagent grade and all solvents were of analytical grade.
Dark Agouti rats (male, 7-8 weeks old) were obtained from Harlan Laboratories (Maison-Alfort, France). Rats were kept on a 12 hours light/dark cycle (0700-1900). The temperature was maintained at 22° C., and food and water were provided ad libitum.
One day before the experiment, CII solution (2 mg/mL) was prepared with 0.05 M acetic acid and stored at 4° C. Just before the immunization, equal volumes of adjuvant (IFA) and CII were mixed by a homogenizer in a pre-cooled glass bottle in an ice water bath. Extra adjuvant and prolonged homogenization might be required if an emulsion is not formed. 0.2 mL of the emulsion was injected intradermally at the base of the tail of each rat on day 1, a second booster intradermal injection (CII solution at 2 mg/mL in CFA 0.1 mL saline) was performed on day 9. This immunization method was modified from published methods (Sims N A et al., (2004) Targeting osteoclasts with zoledronic acid prevents bone destruction in collagen-induced arthritis, Arthritis Rheum. 50 2338-2346; Jou et al., 2005).
The therapeutic effects of the test compounds were tested in the rat CIA model. Rats were randomly divided into equal groups and each group contained 10 rats. All rats were immunized on day 1 and boosted on day 9. Therapeutic dosing lasted from day 16 to day 30. The negative control group was treated with vehicle (MC 0.5%) and the positive control group with Enbrel (10 mg/kg, 3× week, s.c.). A compound of interest was typically tested at 3 doses, e.g. 3, 10, 30 mg/kg, p.o.
Arthritis was scored according the method of Khachigian 2006, Lin et al 2007 and Nishida et al. 2004. The swelling of each of the four paws was ranked with the arthritic score as follows: 0-no symptoms; 1-mild, but definite redness and swelling of one type of joint such as the ankle or wrist, or apparent redness and swelling limited to individual digits, regardless of the number of affected digits; 2-moderate redness and swelling of two or more types of joints; 3-severe redness and swelling of the entire paw including digits; 4-maximally inflamed limb with involvement of multiple joints (maximum cumulative clinical arthritis score 16 per animal) (Nishida et al., 2004).
Clinically, body weight loss is associated with arthritis (Shelton et al., 2005; Argiles et al., 1998; Rall, 2004; Walsmith et al., 2004). […] The change in body weight (%) after onset of arthritis was calculated as follows: […]
X-ray photos were taken of the hind paws of each individual animal. A random blind identity number was assigned to each of the photos, and the severity of bone erosion was ranked by two independent scorers with the radiological Larsen's score system as follows: 0-normal with intact bony outlines and normal joint space; 1—slight abnormality with any one or two of the exterior metatarsal bones showing slight bone erosion; 2—definite early abnormality with any three to five of the exterior metatarsal bones showing bone erosion; 3—medium destructive abnormality with all the exterior metatarsal bones as well as any one or two of the interior metatarsal bones showing definite bone erosions; 4—severe destructive abnormality with all the metatarsal bones showing definite bone erosion and at least one of the inner metatarsal joints completely eroded leaving some bony joint outlines partly preserved; 5—mutilating abnormality without bony outlines. This scoring system is a modification from Salvcmini et al., 2001; Bush et al., 2002; Sims et al., 2004; Jou et al., 2005. […]

[11] = target: Recombinant human TYK2 catalytic domain (Homo sapiens (Human), UniProt P29597); experiment: TYK2 inhibition assay; type: biochemical; conditions: semi-quantitative score
How it was run: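 Recombinant human TYK2 catalytic domain; radiometric kinase reaction run 90 min at 30° C, stopped with phosphoric acid, washed and counted by scintillation.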

[12] = tested on: Caco-2 cells; experiment: Caco2 permeability (bi-directional); type: in vitro ADME, human; conditions: Caco-2, apical to basolateral
How it was run: as §2

[13] = HeLa cells, OSM-triggered pSTAT1(2)-luciferase reporter
[14] = SW1353 cells, OSM and IL-1β triggered, MMP13 levels 48 hours after triggering

Chain of Recombinant human JAK3 catalytic domain (P52333 781-1124): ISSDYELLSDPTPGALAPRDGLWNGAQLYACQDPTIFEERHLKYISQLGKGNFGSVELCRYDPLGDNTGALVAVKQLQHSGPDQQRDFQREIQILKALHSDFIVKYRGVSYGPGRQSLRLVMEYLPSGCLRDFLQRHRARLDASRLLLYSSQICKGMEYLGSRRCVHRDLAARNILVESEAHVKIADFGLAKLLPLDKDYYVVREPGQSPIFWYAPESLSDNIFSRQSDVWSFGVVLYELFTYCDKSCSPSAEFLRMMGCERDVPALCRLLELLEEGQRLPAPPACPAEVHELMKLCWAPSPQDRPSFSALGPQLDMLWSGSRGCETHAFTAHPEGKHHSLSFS
Chain of Recombinant human JAK2 catalytic domain (O60674 808-1132): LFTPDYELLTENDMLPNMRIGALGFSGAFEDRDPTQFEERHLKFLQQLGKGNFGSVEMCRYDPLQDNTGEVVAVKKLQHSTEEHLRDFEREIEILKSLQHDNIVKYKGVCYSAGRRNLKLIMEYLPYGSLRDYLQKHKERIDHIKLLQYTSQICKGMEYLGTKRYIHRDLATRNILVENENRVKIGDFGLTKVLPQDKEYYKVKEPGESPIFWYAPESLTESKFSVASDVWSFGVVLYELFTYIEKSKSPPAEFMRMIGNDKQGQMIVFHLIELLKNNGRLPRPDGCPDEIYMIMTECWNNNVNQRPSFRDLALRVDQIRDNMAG
Chain of Recombinant human JAK1 catalytic domain (P23458 850-1154): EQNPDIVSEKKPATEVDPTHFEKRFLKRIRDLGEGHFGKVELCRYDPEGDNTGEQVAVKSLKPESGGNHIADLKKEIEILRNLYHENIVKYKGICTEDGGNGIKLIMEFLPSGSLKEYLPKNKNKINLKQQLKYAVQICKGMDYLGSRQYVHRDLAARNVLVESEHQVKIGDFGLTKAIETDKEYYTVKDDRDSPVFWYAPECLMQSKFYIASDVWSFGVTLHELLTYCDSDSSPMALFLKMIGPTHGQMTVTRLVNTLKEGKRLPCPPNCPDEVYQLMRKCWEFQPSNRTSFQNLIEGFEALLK
Chain of Recombinant human TYK2 catalytic domain (P29597 871-1187): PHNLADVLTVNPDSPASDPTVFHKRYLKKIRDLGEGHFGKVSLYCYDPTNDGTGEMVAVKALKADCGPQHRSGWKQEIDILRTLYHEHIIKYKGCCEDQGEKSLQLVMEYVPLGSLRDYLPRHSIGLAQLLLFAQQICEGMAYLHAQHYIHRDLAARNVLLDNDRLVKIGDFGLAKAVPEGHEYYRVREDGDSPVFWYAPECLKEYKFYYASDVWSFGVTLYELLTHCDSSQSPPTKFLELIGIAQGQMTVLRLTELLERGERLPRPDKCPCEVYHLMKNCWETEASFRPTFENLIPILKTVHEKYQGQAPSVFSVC

Microsomal Stability Human (%) [1] | Microsomal Stability Rat (%) [2] | IC50 [3] [nM] | EC50 [4, 13] [nM] | EC50 [5, 14] [nM] | Papp A→B at 1 h, 10 µM [7] [×10⁻⁶ cm/s] | efflux ratio at 1 h, 10 µM [7] | IC50 [8] [nM] | IC50 [9] [nM] | EC50 ([4]; HeLa) [nM] | EC50 ([5]; SW1353, 48 h) [nM] | IC50 [11] [nM] | Papp (A2B) [12] | Compound | reduction in the TNF release [6] [%] | efficacy in all readouts of the rat CIA study [10]
*** (*** 51-75) | **** (**** 76-100) | < 100 | > 1000 | > 1000 |  |  | < 100 |  |  |  |  |  | O=C(Nc1nc2cccc(-c3ccc(OCc4ccc(-n5cccn5)cc4)cc3)n2n1)C1CC1 [Compound 125] | > 50 | 
*** (*** 51-75) | **** (**** 76-100) | < 100 | 101 to 500 | > 1000 | 23.4 | 0.82 | < 100 | < 100 |  |  |  |  | O=C(Nc1nc2cccc(-c3ccc(OCc4ccccc4)cc3)n2n1)C1CC1 [Compound 12, N-(5-(4-(benzyloxy)phenyl)-[1,2,4]triazolo[1,5-a]pyridin-2-yl)cyclopropanecarboxamide] | > 50 | 
* (* 0-25) | * (* 0-25) | 501 to 1000 | 501 to 1000 | > 1000 | 31.8 | 1.02 | < 100 | < 100 |  |  | 501 to 1000 |  | Cc1cc(COc2ccc(-c3cccc4nc(NC(=O)C5CC5)nn34)cc2)no1 [Compound 52, N-(5-(4-((5-methylisoxazol-3-yl)methoxy)phenyl)-[1,2,4]triazolo[1,5-a]pyridin-2-yl)cyclopropanecarboxamide] | > 50 | 

Continued, molecule first:

Compound | Microsomal Stability Human (%) [1] | Microsomal Stability Rat (%) [2] | IC50 [3] [nM] | EC50 [4, 13] [nM] | EC50 [5, 14] [nM] | Papp A→B at 1 h, 10 µM [7] [×10⁻⁶ cm/s] | efflux ratio at 1 h, 10 µM [7] | IC50 [8] [nM] | IC50 [9] [nM] | EC50 ([4]; HeLa) [nM] | EC50 ([5]; SW1353, 48 h) [nM] | IC50 [11] [nM] | Papp (A2B) [12] | reduction in the TNF release [6] [%] | efficacy in all readouts of the rat CIA study [10]
O=C(Nc1nc2cccc(-c3ccc(C(=O)N4CCC(C(=O)c5ccccc5)CC4)cc3)n2n1)C1CC1 [Compound 74, N-(5-(4-(4-benzoylpiperidine-1-carbonyl)phenyl)-[1,2,4]triazolo[1,5-a]pyridin-2-yl)cyclopropanecarboxamide] | * (* 0-25) | **** (**** 76-100) | > 1000 | > 1000 | > 1000 | 23.3 | 1.14 | < 100 | 101 to 500 |  |  |  |  | > 50 | 
O=C(Nc1nc2cccc(-c3ccc(CN4CCS(=O)(=O)CC4)cc3)n2n1)C1CC1 [Compound 200, Cyclopropanecarboxylic acid {5-[4-(1,1-dioxo-thiomorpholin-4-ylmethyl)-phenyl]-[1,2,4]triazolo[1,5-a]pyridin-2-yl}-amide] | **** (**** 76-100) | *** (*** 51-75) |  |  |  | 4.65 |  |  |  | 501 to 1000 | > 1000 |  |  | > 50 | efficacious in all readouts
O=C(Nc1nc2cccc(-c3ccc(CNc4ncccn4)cc3)n2n1)C1CC1 [Compound 229, Cyclopropanecarboxylic acid {5-[4-(pyrimidin-2-ylaminomethyl)-phenyl]-[1,2,4]triazolo[1,5-a]pyridin-2-yl}-amide] | *** (*** 51-75) | *** (*** 51-75) |  | 501 to 1000 | 501 to 1000 | 25.9 | 1.6 | < 100 | < 100 |  |  |  |  | > 50 | 
O=C(NCCOc1ccccc1)c1ccc(-c2cccc3nc(NC(=O)C4CC4)nn23)cc1 [Compound 60, 4-(2-(cyclopropanecarboxamido)-[1,2,4]triazolo[1,5-a]pyridin-5-yl)-N-(2-phenoxyethyl)benzamide] | ** (** 26-50) | * (* 0-25) | 101 to 500 | 101 to 500 | 501 to 1000 | 16.9 | 2.55 | < 100 | < 100 |  |  | 501 to 1000 |  | > 50 | 
N#CC1CN(C(=O)c2ccc(-c3cccc4nc(NC(=O)C5CC5)nn34)cc2)C1 [Compound 328, Cyclopropanecarboxylic acid {5-[4-(3-cyano-azetidine-1-carbonyl)-phenyl]-[1,2,4]triazolo[1,5-a]pyridin-2-yl)-amide] |  |  |  | 501 to 1000 | > 1000 |  |  |  |  |  |  |  | 0.2! cmx10-6sec-1 |  | 
O=C(Nc1nc2cccc(-c3ccc(C(=O)N4CCS(=O)(=O)CC4)cc3)n2n1)C1CC1 [Compound 207, Cyclopropanecarboxylic acid {5-[4-(1,1-dioxo-thiomorpholine-4-carbonyl)-phenyl]-[1,2,4]triazolo[1,5-a]pyridin-2-yl}-amide] | **** (**** 76-100) | **** (**** 76-100) |  | > 1000 | > 1000 | 0.05 | 104 | < 100 | < 100 |  |  |  |  | > 50 | 
